Data from US20030170245A1, “Activation of matriptase and diagnostic and therapeutic methods based thereon” (priority 2002, published 2003).
Values belong to the molecule of their own block, whether it stands above or below them.

Legend:
matriptase [1] = assay: Induction of matriptase activation in A1N4 mammary epithelial cells (immunoblot of two-chain form with mAb M69); type: cell-based, human; conditions: for induction of matriptase activation (two-chain form): A1N4 cells, qualitative; for concentration at which maximal activation of matriptase was achieved: intact A1N4 cells
Procedure: FIG. 22 LPA and S1P induce the activation of matriptase.
(§1) Immunoblotting analysis: Immunobloting was conducted as previously described. Proteins were separated by 10% SDS-PAGE, transferred overnight to nitrocellulose sheets (Schleicher & Schuell, Keene, N.H.) or polyvinylidene fluoride (PVDF) and subsequently probed with mAb, as indicated. Immuno-reactive polypeptides were visualized using peroxidase-labeled anti-rat immunoglobulin and the ECL detection system (NEN, Boston, Mass.).
Induction of matriptase activation in A1N4 mammary epithelial cells: To serum starve 184 A1N4 cells, the cells were plated at 50-60% confluence, and maintained for 48-72 hrs in medium containing 0.5% serum. The activation of matriptase was then induced by incubating the cells with Iscove's Modified Dulbecco's Medium (IMEM), containing serum, as indicated in the Figure legend. Cells were then scrapped in PBS, and pelleted by centrifigation with a 5 min spin (1500×g). The cell pellets were lysed on ice for 20 min in lysis buffer (1% TritonX-100 in phosphate buffered saline). Cellular debris were removed by centrifugation for 10 min at 14,000×g. Equal protein amounts, as determined by the BCA protein micro assay (Pierce), were resolved under non-reducing, non-boiled conditions, by sodium dodecyl sulfate-polyacrylamide gel electrophoresis (SDS-PAGE), and electroblotted onto PVDF membranes (Millipore).

[2] = tested on: mRNA levels for matriptase or HAI-1; assay: mRNA levels in estrogen-depleted MCF-7 cells after hormone treatment; type: cell-based, human; conditions: data not shown
Procedure: Northern blotting—Total RNA was extracted from cell lines with RNAzol reagent (Tel-Test, Inc., Friendswood, Tex.) according to the manufacturer's instructions. Ten micrograms of total RNA from each cell line was resolved by electrophoresis on a 1.2% phosphate-buffered agarose gel containing 2M formaldehyde. RNA was subsequently transferred to hybond-N nylon membranes (Amersham Pharmacia Biotech, Buckinghamshire, England) and hybridized to ^32P-labeled riboprobes at 65° C. for 36 hours, followed by three washes in 0.1×SSC/0.1%SDS at 80° C. for 30 minutes each to remove unbound probe. To generate the labeled riboprobes, the coding sequences of Matriptase and HAI-1 were cloned into the pcDNA3.1 vector (Invitrogen, San Diego, Calif.), and were linearized with an appropriate restriction enzyme just 5′ of the coding sequences. These linearized vectors were used in in vitro SP6 RNA polymerase reactions with ^32P-UTP (3000 Ci/mmol, NEN, Boston, Mass.) to generate labeled antisense riboprobes. To control for approximately equal loading of RNA from each cell line, labeled riboprobes directed against the message of the ribosomal protein 36B4 were generated in a similar fashion, except that a vector containing approximately 500 bp of the coding sequence was used. […]

[3] = tested on: A1N4 human mammary epithelial cells; assay: Immunofluorescence of actin cytoskeleton rearrangement in A1N4 cells; type: cell-based
Procedure: FIG. 23 Immunofluorescence of actin rearrangement and activated matriptase following LPA and SIP stimulation.
Immunofluorescence: Cells were fixed with 2% paraformaldehyde for 10 min. The two-chain form matriptase was detected with mAb M69 and total matriptase was detected with mAb M32 for 1 hr at room temperature. This was followed by an 1 hr incubation with 1:200 dilution of FITC-conjugated goat anti-mouse (Jackson Immunoresearch, PA). Cells were viewed on a Zeiss microscope, and photographed with Kodak film.

matriptase [4] = biological target: T1, matriptase (Homo sapiens, UniProt Q9Y5Y6); assay: Gelatin zymography of matriptase and matriptase/HAI-1 complex; type: biochemical; conditions: 1 mg/ml gelatin zymogram
T1 construct: separated into two groups of polypeptides with apparent sizes of 45-kDa (A chain) and 25-kDa (B chain); from tissue; host or cells: human milk
T1 sequence (Q9Y5Y6 190-614 limits assumed): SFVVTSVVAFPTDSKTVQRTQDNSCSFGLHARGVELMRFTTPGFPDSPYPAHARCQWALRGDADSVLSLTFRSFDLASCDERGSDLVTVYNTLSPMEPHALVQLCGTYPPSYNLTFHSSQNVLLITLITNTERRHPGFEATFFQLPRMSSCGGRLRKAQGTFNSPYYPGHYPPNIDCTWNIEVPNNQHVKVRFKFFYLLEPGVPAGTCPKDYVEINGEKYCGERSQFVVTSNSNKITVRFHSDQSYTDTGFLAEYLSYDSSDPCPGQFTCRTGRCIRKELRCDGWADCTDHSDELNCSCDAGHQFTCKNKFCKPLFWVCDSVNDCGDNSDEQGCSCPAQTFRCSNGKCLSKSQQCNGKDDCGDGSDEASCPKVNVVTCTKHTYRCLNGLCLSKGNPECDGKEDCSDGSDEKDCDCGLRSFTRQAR
T1 sequence (Q9Y5Y6 615-854 limits assumed): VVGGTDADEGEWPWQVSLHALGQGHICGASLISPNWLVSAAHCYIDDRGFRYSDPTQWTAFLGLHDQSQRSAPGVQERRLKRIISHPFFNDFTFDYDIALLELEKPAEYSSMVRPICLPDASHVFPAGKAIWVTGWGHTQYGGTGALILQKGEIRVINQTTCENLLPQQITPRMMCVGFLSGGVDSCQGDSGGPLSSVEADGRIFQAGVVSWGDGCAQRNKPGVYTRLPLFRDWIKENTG
Description: (§2) FIG. 11 Inhibition of matriptase by HAI-1. Matriptase and HAI-1 were isolated from human milk by anti-matriptase mAb 21-9 immunoaffinity chromatography, as described previously, and were maintained in an uncomplexed status in elution buffer, 0.1 M glycine, pH 2.4.

matriptase [5] = biological target: T1, matriptase; assay: Proteolytic activity assay (cleavage rate of fluorescent substrate BOC-Gln-Ala-Arg-AMC); type: biochemical; conditions: pH 8.0, 37° C.
Procedure: as §2
[…] Louis), as a substrate. The rate of cleavage was determined with a fluorescence spectrophotometer (Hitachi, F-4500).

matriptase [6] = biological target: T1, matriptase; assay: Binding of HAI-1 to matriptase (95-kDa complex formation, immunoblot with mAb 21-9)
Procedure: as §2, §1

Molecule: C=C1[C@@H](C)[C@H]2[C@H](Cc3ccccc3)NC(=O)[C@]23[C@H](OC(C)=O)/C=C/[C@@](C)(O)C(=O)[C@@H](C)C/C=C/[C@H]3[C@@H]1O [cytochalasin D]
block of S1P-induced activation of matriptase (matriptase [1]; pretreatment of cells before S1P): failed to block the activation of matriptase by S1P

Molecule: Ceramide1-P
induction of matriptase activation (two-chain form) (matriptase [1]): induced the activation of matriptase although at higher concentration than S1P

Molecule: C[C@]12CC[C@@H]3c4ccc(O)cc4CC[C@H]3[C@@H]1CC[C@@H]2O [17β-estradiol]
change in mRNA levels for matriptase or HAI-1 ([2]; 100 nM 17β-estradiol): no change

Molecule: lysophosphatidic acid [LPA]
actin cytoskeleton rearrangement (stress-fiber formation) [3]: induced actin cytoskelaton reorganization | induction of matriptase activation (two-chain form) (matriptase [1]): could mimic serum and LDL induced activation of matriptase | concentration at which maximal activation of matriptase was achieved (matriptase [1]): 1 µg/mL

Molecule: CC(=O)[C@H]1CC[C@H]2[C@@H]3CCC4=CC(=O)CC[C@]4(C)[C@H]3CC[C@]12C [progesterone]
change in mRNA levels for matriptase or HAI-1 ([2]; 100 nM 17β-estradiol plus 100 nM progesterone): no change

Molecule: CCCCCCCCCCCCC/C=C/[C@@H](O)[C@@H](N)COP(=O)(O)O [S1P, shingosine 1-phosphate]
actin cytoskeleton rearrangement (stress-fiber formation) [3]: induced actin cytoskelaton reorganization | induction of matriptase activation (two-chain form) (matriptase [1]): could mimic serum and LDL induced activation of matriptase | potency in inducing the activation of matriptase relative to LPA (matriptase [1]; S1P versus LPA): 100 fold | time at which activation of matriptase started after addition (matriptase [1]; after S1P addition): ≤ 5 min | time to maximal activation of matriptase (matriptase [1]; after S1P addition): ≤ 10 min | concentration at which maximal activation of matriptase was achieved (matriptase [1]): 0.001 µg/mL | concentration at which maximal activation of matriptase was achieved (matriptase [1]; molar value in brackets): 2.6 nM

rate of cleavage of synthetic fluorescent substrate by matriptase after HAI-1 binding (matriptase [5]): drastically decreased | incubation time after which uncomplexed matriptase was undetectable by immunoblot (matriptase [6]; pH 8.0, 37° C.): 30 min | formation of 95-kDa matriptase/HAI-1 complex (matriptase [6]; pH raised to 8.0, 37° C.): rapidly occurred
B1: HAI-1: type-1, integral membrane, Kunitz-type serine protease inhibitor, cognate inhibitor of matriptase (protein, UniProt O43278 36-529, looked up)
Kunitz-type protease …: GPPPAPPGLPAGADCLNSFTAGVPGFVLDTNASVSNGATFLESPTVRRGWDCVRACCTTQNCNLALVELQPDRGEDAIAACFLINCLYEQNFVCKFAPREGFINYLTREVYRSYRQLRTQGFGGSGIPKAWAGIDLKVQPQEPLVLKDVENTDWRLLRGDTDVRVERKDPNQVELWGLKEGTYLFQLTVTSSDHPEDTANVTVTVLSTKQTEDYCLASNKVGRCRGSFPRWYYDPTEQICKSFVYGGCLGNKNNYLREEECILACRGVQGGPLRGSSGAQATFPQGPSMERRHPVCSGTCQPTQFRCSNGCCIDSFLECDDTPNCPDASDEAACEKYTSGFDELQRIHFPSDKGHCVDLPDTGLCKESIPRWYYNPFSEHCARFTYGGCYGNKNNFEEEQQCLESCRGISKKDVFGLRREIPIPSTGSVEMAVAVFLVICIVVVVAILGYCFFKNQRKDFHGHHHHPPPTPASSTVSTTEDTEHLVYNHTTRPL
gelatinolytic activity of the 95-kDa matriptase/HAI-1 complex (matriptase [4]): only trace amounts of gelatinolytic activity
